The target of one test is T1, GST-Pdia4 (Homo sapiens, UniProt P13667).
T1 construct: made in house; host or cells: E. coli
T1 sequence (P13667 21-645): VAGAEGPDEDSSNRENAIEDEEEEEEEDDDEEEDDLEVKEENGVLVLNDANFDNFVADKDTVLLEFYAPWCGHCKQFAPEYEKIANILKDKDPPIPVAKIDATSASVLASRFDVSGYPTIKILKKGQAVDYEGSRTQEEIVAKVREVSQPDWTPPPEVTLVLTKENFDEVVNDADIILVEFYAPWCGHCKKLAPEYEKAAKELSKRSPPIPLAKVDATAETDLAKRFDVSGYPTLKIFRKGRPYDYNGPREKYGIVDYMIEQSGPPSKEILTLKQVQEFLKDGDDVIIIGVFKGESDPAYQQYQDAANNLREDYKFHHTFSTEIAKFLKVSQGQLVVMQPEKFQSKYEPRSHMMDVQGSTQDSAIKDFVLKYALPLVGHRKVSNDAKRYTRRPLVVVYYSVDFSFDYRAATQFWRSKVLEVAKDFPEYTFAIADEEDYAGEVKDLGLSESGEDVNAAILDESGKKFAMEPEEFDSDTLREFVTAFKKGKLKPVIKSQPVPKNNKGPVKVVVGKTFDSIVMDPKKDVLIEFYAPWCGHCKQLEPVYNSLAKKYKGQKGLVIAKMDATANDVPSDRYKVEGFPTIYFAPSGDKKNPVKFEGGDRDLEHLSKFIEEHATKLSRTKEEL
The test is described as follows: Bovine pancreatic trypsin inhibitor (BPTI)-based assay of disulfide isomerase activity. The test is classed as biochemical. The following applies: reduced BPTI as substrate, CP at different doses, FIG. 5B. Here is the method: Their postprandial blood glucose was determined using a glucometer. […] Their postprandial blood glucose was determined using a glucometer. Glutathione agarose bead-bound GST-Pdia4 (0.15 μg) were purified from E. coli bacteria.

In the next test the test system is lepr^db/db mice. The test is described as follows: Postprandial blood glucose in treated lepr db/db mice. Type of test: in vivo, mouse. The following applies: cytopiloyne 2.5 mg/kg daily, FIG. 5C. How it is done:
Their postprandial blood glucose was determined using a glucometer. […] Their postprandial blood glucose was determined using a glucometer.
To deplete pancreatic β cells in mice. […] Postprandial blood glucose was measured. […] Postprandial blood glucose was measured.

The next test relates to pdia4^−/−lepr^db/db mice. The test is described as follows: Postprandial blood glucose in treated pdia4-/- lepr db/db mice. Conditions: metformin 60 mg/kg BW, rosiglitazone 20 mg/kg BW or both, daily, FIG. 5A.

Experimental for pdia4^−/−lepr^db/db mice: (A) lepr^db/db and pdia4^−/−lepr^db/db mice received a daily dose of PBS vehicle (Veh), metformin (MET, 60 mg/kg BW) and metformin (MET, 60 mg/kg BW)/rosiglitazone (ROS, 20 mg/kg BW). Their postprandial blood glucose was determined using a glucometer. […] (C) lepr^db/db mice received a daily dose of PBS vehicle (Veh), cytopiloyne (CP, 2.5 mg/kg), cytopiloyne (CP, 2.5 mg/kg)/metformin (MET, 60 mg/kg BW) and cytopiloyne (CP, 2.5 mg/kg)/metformin (MET, 60 mg/kg BW)/rosiglitazone (Ros, 20 mg/kg BW). Their postprandial blood glucose was determined using a glucometer.
To treat mice, PBS or a combination of cytopiloyne (2.5 mg/kg/day), metformin (60 mg/kg/day), and metformin (60 mg/kg/day) plus rosiglitazone (20 mg/kg/day) were fed for the indicated time. Postprandial blood glucose was measured. To treat pdia4^−/−lepr^db/db mice, PBS, metformin (60 mg/kg/day), and metformin (60 mg/kg/day) plus rosiglitazone (20 mg/kg/day) were fed for the indicated time. Postprandial blood glucose was measured.
After the overnight fasting, the mice had free access to food for 2 hr. fasting or postprandial blood glucose levels of the mice were measured using an Elite glucometer (Bayer).

Turning to `CC#CC#CC#CC#CCCC(CO)O[C@@H]1O[C@H](CO)[C@@H](O)[C@H](O)[C@H]1O` (stereo partly shown) [cytopiloyne], the “enzymatic (disulfide isomerase) activity of Pdia4” value at GST-Pdia4 is given as “inhibited Pdia4 activity”; on GST-Pdia4 (listed as Cytopiloyne), “suppress the enzymatic activity of Pdia4”. The postprandial blood glucose entry with lepr^db/db mice is on record as “lower postprandial blood glucose”.

Turning to `CN(C)C(=N)N=C(N)N` [metformin], the “hyperglycemia (postprandial blood glucose)” value with pdia4^−/−lepr^db/db mice was “normalize hyperglycemia”.

The values above are taken from patent publication US10987369B2, “Pdia4 protein as a target for diagnosis, monitoring and treatment of diabetes” (ACADEMIA SINICA, priority 2014, dated 2021).
